Molecular target: H1047R PIK3CA enzyme (Homo sapiens, UniProt P42336, H1047R)
Assay: ADP-Glo Biochemical PIK3CA Kinase Assay

Sequence of H1047R PIK3CA enzyme (P42336 whole entry H1047R): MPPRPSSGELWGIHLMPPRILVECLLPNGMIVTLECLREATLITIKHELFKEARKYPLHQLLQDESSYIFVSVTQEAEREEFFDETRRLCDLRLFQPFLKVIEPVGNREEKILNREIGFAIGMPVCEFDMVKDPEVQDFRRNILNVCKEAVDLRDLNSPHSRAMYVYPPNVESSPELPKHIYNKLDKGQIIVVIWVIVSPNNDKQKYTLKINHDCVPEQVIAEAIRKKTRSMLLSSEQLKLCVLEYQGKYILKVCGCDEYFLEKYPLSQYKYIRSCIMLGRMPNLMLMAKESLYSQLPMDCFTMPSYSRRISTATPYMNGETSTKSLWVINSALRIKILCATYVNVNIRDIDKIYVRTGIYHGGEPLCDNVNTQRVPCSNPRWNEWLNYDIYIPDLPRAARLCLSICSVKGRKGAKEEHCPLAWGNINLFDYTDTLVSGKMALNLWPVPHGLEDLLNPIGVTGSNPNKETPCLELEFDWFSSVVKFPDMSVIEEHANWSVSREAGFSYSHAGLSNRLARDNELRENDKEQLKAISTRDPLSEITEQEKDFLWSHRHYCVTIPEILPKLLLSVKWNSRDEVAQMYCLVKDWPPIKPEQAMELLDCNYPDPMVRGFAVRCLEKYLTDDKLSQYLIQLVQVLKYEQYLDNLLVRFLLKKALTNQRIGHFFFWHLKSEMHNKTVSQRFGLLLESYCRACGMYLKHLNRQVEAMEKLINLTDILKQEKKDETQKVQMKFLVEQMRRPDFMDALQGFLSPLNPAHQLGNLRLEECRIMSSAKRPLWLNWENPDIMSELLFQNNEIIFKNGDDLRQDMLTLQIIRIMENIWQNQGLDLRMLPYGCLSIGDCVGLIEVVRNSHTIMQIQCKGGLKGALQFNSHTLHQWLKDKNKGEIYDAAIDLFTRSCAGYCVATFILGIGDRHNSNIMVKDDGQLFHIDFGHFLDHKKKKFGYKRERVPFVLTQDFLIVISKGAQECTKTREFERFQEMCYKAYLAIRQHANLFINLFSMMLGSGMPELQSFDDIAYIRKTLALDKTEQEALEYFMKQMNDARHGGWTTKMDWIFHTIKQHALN
Sequence of H1047R PIK3CA enzyme (P27986 whole entry partner): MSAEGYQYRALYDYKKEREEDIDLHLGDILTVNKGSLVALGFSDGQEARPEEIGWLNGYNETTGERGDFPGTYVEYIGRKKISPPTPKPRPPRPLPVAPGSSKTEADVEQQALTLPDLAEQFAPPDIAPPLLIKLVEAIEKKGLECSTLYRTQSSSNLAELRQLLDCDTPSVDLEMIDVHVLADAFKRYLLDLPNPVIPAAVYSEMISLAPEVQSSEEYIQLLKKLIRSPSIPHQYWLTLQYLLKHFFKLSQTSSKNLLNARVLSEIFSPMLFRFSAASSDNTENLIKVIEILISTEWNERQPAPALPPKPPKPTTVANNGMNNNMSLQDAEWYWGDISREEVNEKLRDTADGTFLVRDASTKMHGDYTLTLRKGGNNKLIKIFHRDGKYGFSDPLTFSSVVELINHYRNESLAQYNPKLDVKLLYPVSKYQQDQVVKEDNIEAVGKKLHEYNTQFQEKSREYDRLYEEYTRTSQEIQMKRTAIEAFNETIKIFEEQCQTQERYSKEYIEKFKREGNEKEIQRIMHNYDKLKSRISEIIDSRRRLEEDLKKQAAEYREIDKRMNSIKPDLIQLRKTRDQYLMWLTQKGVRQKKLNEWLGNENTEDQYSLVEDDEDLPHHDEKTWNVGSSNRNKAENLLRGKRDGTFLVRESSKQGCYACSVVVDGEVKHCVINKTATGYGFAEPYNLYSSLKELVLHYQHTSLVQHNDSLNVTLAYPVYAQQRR

Structure (SMILES) | IC50 [nM]
O=C1NC(c2cc(F)ccc2Cl)c2c1cccc2-c1nc2c(F)cc(C(F)(F)F)cc2[nH]1 (centres unmarked) [Compound I-1944] | ≤ 100
CSC(C)c1cc(NC(=O)c2cc(F)cc(C(F)(F)F)c2)c2c(c1)C(=O)NC2c1cc(F)ccc1Cl (racemic) [Compound I-1490] | ≤ 100
Cn1cc(-c2cc(NC(=O)c3cc(F)cc(C(F)(F)F)c3)c3c(n2)C(=O)N[C@@H]3c2cc(F)ccc2Cl)ccc1=O [Compound I-587] | 1000 to 10000
COc1ncc(-c2cc(NC(=O)c3cc(F)cc(C(F)(F)F)c3)c3c(c2)C(=O)N[C@@H]3c2cc(F)ccc2Cl)cn1 [Compound I-881] | 1000 to 10000
COCC(=O)Nc1cc(NC(=O)c2cc(F)cc(C(F)(F)F)c2)c2c(c1)C(=O)NC2c1cc(F)ccc1Cl (centres unmarked) [Compound I-346] | ≤ 100
Cc1ccccc1C1NC(=O)c2cccc(NC(=O)c3ncsc3Br)c21 (centres unmarked) [Compound I-452] | 1000 to 10000
O=C1N[C@H](c2cc(F)ccc2Cl)c2c(NC(=O)N3CCc4ccccc43)cc(-c3ccc4ncnn4c3)cc21 (stereo in doubt) [Compound I-1716] | 1000 to 10000
O=C1N[C@H](c2cc(F)ccc2Cl)c2c(NC(=O)N3C[C@](O)(C(F)(F)F)c4cc(F)ccc43)cc(-n3nccn3)cc21 (single isomer, unassigned) [Compound I-2570] | 1000 to 10000
CC(C#N)n1cc(-c2cc(NC(=O)c3cc(F)cc(C(F)(F)F)c3)c3c(c2)C(=O)NC3c2cc(F)ccc2Cl)cn1 (centres unmarked) [Compound I-1837] | ≤ 100
O=C(Nc1cc(-c2cnc3ncc(Cl)n3c2)cc2c1[C@H](c1cc(F)ccc1Cl)NC2=O)c1cc(F)cc(C(F)(F)F)c1 [Compound I-1985] | ≤ 100
O=C(Nc1cccc2c1C(C1NC3CCC1C3)NC2=O)c1cc(F)cc(C(F)(F)F)c1 (centres unmarked) [Compound I-2076] | 10000 to 100000
O=C1NC(c2cc(F)ccc2Cl)c2c(NC(=O)C3CCNCC3)cc(-c3ccc4ncnn4c3)cc21 (centres unmarked) [Compound I-1751] | 10000 to 100000
C[C@@H](C#N)Oc1cc(NC(=O)c2cc(F)cc(C(F)(F)F)c2)c2c(c1)C(=O)N[C@@H]2c1cc(F)ccc1Cl (single isomer, unassigned) [Compound I-2007] | 1000 to 10000
O=C1N[C@@H](c2cc(F)ccc2Cl)c2c(NC(=O)N3C[C@@](O)(C(F)(F)F)c4cc(F)ccc43)cc(N3CCCC3=O)cc21 (single isomer, unassigned) [Compound I-2667] | 1000 to 10000
CC(C)(C#N)n1cc(-c2cc(NC(=O)N3C[C@](O)(C(F)(F)F)c4cc(F)ccc43)c3c(c2)C(=O)N[C@@H]3c2cc(F)ccc2Cl)cn1 (single isomer, unassigned) [Compound I-2610] | 1000 to 10000
CC1(COc2cc(NC(=O)c3cc(F)cc(C(F)(F)F)c3)c3c(c2)C(=O)NC3c2cc(F)ccc2Cl)COC1 (centres unmarked) [Compound I-748] | ≤ 100

Structure (SMILES) | IC50 [nM]
O=C(Nc1cc(-c2ccn3ncnc3n2)cc2c1C(c1cc(F)ccc1Cl)NC2=O)c1cc(F)cc(C(F)(F)F)c1 (centres unmarked) [Compound I-1677] | ≤ 100
Cc1ccccc1-n1[nH]c(=O)c2cccc(NC(=O)c3csc4ccccc34)c21 [Compound I-68] | 500 to 1000
Cn1cc(-c2cc(NC(=O)c3cc(F)cc(C(F)(F)F)c3)c3c(n2)C(=O)N[C@H]3c2cc(F)ccc2Cl)ccc1=O [Compound I-588] | ≤ 100
O=C(Nc1cc(-c2cn[nH]c2)nc2c1[C@H](c1cc(F)ccc1Cl)NC2=O)c1cc(F)cc(Cl)c1 [Compound I-196] | ≤ 100
CS(=O)(=O)CC(O)c1cc(NC(=O)c2cc(F)cc(Cl)c2)c2c(c1)C(=O)NC2c1cc(F)ccc1Cl (centres unmarked) [Compound I-297] | 100 to 500
O=C(Nc1cc(Br)cc2c1C(c1cc(F)ccc1Cl)NC2=O)c1cc(Cl)ccc1OC(F)(F)F (centres unmarked) [Compound I-859] | 1000 to 10000
O=C(Nc1cc(/N=C2\OC[C@H]3CCCN23)cc2c1C(c1cc(F)ccc1Cl)NC2=O)c1cc(F)cc(C(F)(F)F)c1 (some centres unmarked) [Compound I-2354] | 100 to 500
CCc1cc(F)cc(C(=O)Nc2cc(Br)cc3c2C(c2ccccc2C)NC3=O)c1 (centres unmarked) [Compound I-608] | 500 to 1000
O=C1NC(c2cc(F)ccc2Cl)c2c(NC(=O)C3(c4cccc(Cl)c4)CCCC3)cc(Br)cc21 (centres unmarked) [Compound I-1637] | 10000 to 100000
N#Cc1ccccc1C1NC(=O)c2cccc(NC(=O)c3nsc4ccccc34)c21 (centres unmarked) [Compound I-197] | 1000 to 10000
O=C(Nc1cc(-c2cnc(-n3cccn3)nc2)cc2c1C(c1cc(F)ccc1Cl)NC2=O)c1cc(F)cc(C(F)(F)F)c1 (centres unmarked) [Compound I-1483] | ≤ 100
Cc1ccccc1C(=O)Nc1cc(Br)cc2c1C(c1cc(F)ccc1Cl)NC2=O (centres unmarked) [Compound I-464] | 10000 to 100000
C[C@H](c1cc(NC(=O)c2cc(F)cc(C(F)(F)F)c2)c2c(c1)C(=O)N[C@H]2c1cc(F)ccc1Cl)S(C)(=O)=O (single isomer, unassigned) [Compound I-1642] | ≤ 100
O=C1N[C@@H](c2cc(F)ccc2Cl)c2c(NC(=O)N3C[C@@](O)(C(F)F)c4cc(F)ccc43)cc(Cl)cc21 (single isomer, unassigned) [Compound I-2589] | 1000 to 10000
Cc1ccccc1C1NC(=O)c2nccc(NC(=O)N3CCc4cccnc43)c21 (centres unmarked) [Compound I-282] | 1000 to 10000
C[C@@H](c1nn[nH]c1C(=O)Nc1cccc2c1[C@@H](c1cc(F)ccc1Cl)NC2=O)C(F)(F)F (single isomer, unassigned) [Compound I-2270] | 10000 to 100000

More lines, now with the values ahead:

IC50 [nM] | Structure (SMILES)
≤ 100 | N#Cc1nc2ccc(-c3cc(NC(=O)c4cc(F)cc(C(F)(F)F)c4)c4c(c3)C(=O)NC4c3cc(F)ccc3Cl)cn2n1 (centres unmarked) [Compound I-1707]
1000 to 10000 | O=C1NC(c2cc(F)ccc2Cl)c2c(COc3cc4ccccc4cn3)cc(-c3ccc4ncnn4c3)cc21 (centres unmarked) [Compound I-1981]
1000 to 10000 | Cc1ccccc1C1NC(=O)c2cccc(NC(=O)c3cnn4ccc(Cl)cc34)c21 (centres unmarked) [Compound I-48]
≤ 100 | Nc1cnc2ccc(-c3cc(NC(=O)c4cc(F)cc(C(F)(F)F)c4)c4c(c3)C(=O)NC4c3cc(F)ccc3Cl)cn12 (centres unmarked) [Compound I-1409]
1000 to 10000 | CC(C)(C#N)n1cc(-c2cc(NC(=O)N3C[C@@](O)(C(F)(F)F)c4cc(F)ccc43)c3c(c2)C(=O)N[C@H]3c2cc(F)ccc2Cl)cn1 (single isomer, unassigned) [Compound I-2612]
≤ 100 | O=C(Nc1cc(C2(O)CC2)cc2c1C(c1cc(F)ccc1Cl)NC2=O)c1cc(F)cc(C(F)(F)F)c1 (centres unmarked) [Compound I-374, N-[3-(2-chloro-5-fluorophenyl)-6-(1-hydroxycyclopropyl)-1-oxo-2,3-dihydro-1H-isoindol-4-yl]-3-fluoro-5-(trifluoromethyl)benzamide]
500 to 1000 | Cc1ccccc1C1NC(=O)c2cccc(NC(=O)c3nsc4ccc(Br)cc34)c21 (centres unmarked) [Compound I-376]
100 to 500 | O=C(Nc1ccc(F)cc1C(F)(F)F)Nc1cc(Br)cc2c1C(c1cc(F)ccc1Cl)NC2=O (centres unmarked) [Compound I-1050]
10000 to 100000 | O=C1NC(c2cc(F)ccc2Cl)c2c(NC(=O)c3[nH]nnc3CC(F)(F)F)cccc21 (centres unmarked) [Compound I-2194]
1000 to 10000 | N#C[C@H]1C[C@H](Oc2cc(NC(=O)c3cc(F)cc(C(F)(F)F)c3)c3c(c2)C(=O)N[C@@H]3c2cc(F)ccc2Cl)C1 (stereo in doubt) [Compound I-1304]
≤ 100 | O=C(Nc1cc(N[C@H]2C[C@@H](F)C2)cc2c1C(c1cc(F)ccc1Cl)NC2=O)c1cc(F)cc(C(F)(F)F)c1 (single isomer, unassigned) [Compound I-541]
1000 to 10000 | O=C1NC(c2cc(F)ccc2Cl)c2c(NC(=O)[C@H]3C[C@@H](C(F)(F)F)C3)cc(Br)cc21 (some centres unmarked) [Compound I-1989]
≤ 100 | O=C(Nc1cc(CN2CCNCC2)cc2c1C(c1cc(F)ccc1Cl)NC2=O)c1cc(F)cc(C(F)(F)F)c1 (centres unmarked) [Compound I-350]
≤ 100 | CN1CC(c2cc(NC(=O)c3cc(F)cc(C(F)(F)F)c3)c3c(c2)C(=O)NC3c2cc(F)ccc2Cl)CC1=O (racemic) [Compound I-1687]
≤ 100 | O=C(Nc1cc(-c2ccn3cncc3c2)cc2c1C(c1cc(F)ccc1Cl)NC2=O)c1cc(F)cc(C(F)(F)F)c1 (centres unmarked) [Compound I-1503]
≤ 100 | O=C(Nc1cc(-c2cnc(OCCO)nc2)cc2c1C(c1cc(F)ccc1Cl)NC2=O)c1cc(F)cc(C(F)(F)F)c1 (centres unmarked) [Compound I-1474]
≤ 100 | Cn1cc(-c2cc(NC(=O)c3cc(F)cc(C(F)(F)F)c3)c3c(c2)C(=O)NC3c2cc(F)ccc2Cl)nn1 (centres unmarked) [Compound I-879]
1000 to 10000 | O=C1NC(c2cc(F)ccc2Cl)c2c(NC(=O)C3CCS(=O)(=O)CC3)cc(-c3ccc4ncnn4c3)cc21 (centres unmarked) [Compound I-2045]
100 to 500 | O=C(Nc1cc(-c2ccc3ncnn3c2)nc2c1[C@@H](c1cc(F)ccc1Cl)NC2=O)c1cc(F)cc(C(F)(F)F)c1 [Compound I-1230]
≤ 100 | CC(=O)c1cc(NC(=O)c2cc(F)cc(C(F)(F)F)c2)c2c(c1)C(=O)NC2c1cc(F)ccc1Cl (centres unmarked) [Compound I-127, N-(6-Acetyl-3-(2-chloro-5-fluorophenyl)-1-oxoisoindolin-4-yl)-3-fluoro-5-(trifluoromethyl)benzamide]
100 to 500 | N#C[C@H]1C[C@@H](c2cc(NC(=O)c3cc(F)cc(C(F)(F)F)c3)c3c(c2)C(=O)N[C@H]3c2cc(F)ccc2Cl)C1 (single isomer, unassigned) [Compound I-1328]
1000 to 10000 | O=C1NC(c2cc(F)ccc2Cl)c2c(Nc3coc4ccccc34)cc(Br)cc21 (centres unmarked) [Compound I-1691]
≤ 100 | O=C(Nc1cc(-c2ccncc2F)nc2c1C(c1cc(F)ccc1Cl)NC2=O)c1cc(F)cc(Cl)c1 (centres unmarked) [Compound I-502]
10000 to 100000 | Cc1ccccc1C1NC(=O)c2cccc(NC(=O)c3c[nH]c(=O)c(F)c3)c21 (centres unmarked) [Compound I-86]
500 to 1000 | O=C(Nc1c(F)ccc2c1C(c1cc(F)ccc1C(F)F)NC2=O)c1cc(F)cc(C(F)(F)F)c1 (centres unmarked) [Compound I-283, N-(3-(2-(Difluoromethyl)-5-fluorophenyl)-5-fluoro-1-oxoisoindolin-4-yl)-3-fluoro-5-(trifluoromethyl)benzamide]
≤ 100 | O=C1N[C@@H](c2cc(F)ccc2Cl)c2c(NC(=O)N3CC4(CC4)c4cc(F)ccc43)cc(Br)cc21 (stereo in doubt) [Compound I-1509]
1000 to 10000 | C[C@@]1(O)CN(C(=O)Nc2cccc3c2[C@@H](c2cc(F)ccc2Cl)NC3=O)c2ccccc21 (single isomer, unassigned) [Compound I-2204]

Reference: patent US12581252B2, “Substituted pyrrolo[3,4-b]pyridines as PI3K-α inhibitors” (Relay Therapeutics, Inc., priority 2020, dated 2026)
